Measured values from patent US12447149B2, “Formulations of vimseltinib” (Deciphera Pharmaceuticals, LLC, priority 2023, dated 2025).

Assays:
Assay type in all cases: physicochemical
[1] = Particle size analysis by laser diffraction (Malvern Mastersizer 3000, wet dispersion); conditions: volume distribution
Protocol: Particle size analysis of dihydrate vimseltinib drug substance samples was determined by laser diffraction using a Malvern Mastersizer 3000 instrument in a wet dispersion mode.
Prior to analysis, dihydrate drug substance samples were rotated and inverted in the sample container at least 10 times to ensure homogeneity. Between 20 and 25 mg of sample was weighed into a Malvern Glass tube. 20 mL of the Dispersant Solution (0.1% Span 85 in Isoparaffin G) was added and vortexed until a homogeneous suspension was obtained (˜30 s). The sample was then placed in a Vibra-Cell ultrasonic processor. The amplitude was set to the target of 30% (4 Watts) using an external probe (Vibra-Cell) during 90 sec.
After background measurement, the sample dispersion was slowly added to the dispersion unit of the instrument to achieve an obscuration level target of 5%. The sample was stirred at 3250 rpm for at least 1 minute to ensure dispersion and stabilization of the sample. After stabilization, the measurement was started and performed using a Malvern Mastersizer 3000 according to the method conditions provided in Table 17.

[2] = Particle size distribution (PSD) of crystalline dihydrate form and seeds, DMAC-water crystallization; conditions: milled seeds of crystalline dihydrate form used in DMAC-water crystallization
[3] = Hydration experiment: slurry of crystalline anhydrous form in deionized water, heat-cool cycles; conditions: 4-hour heat-cool cycles between 40° C. and room temperature for 72 hours
Protocol: In a hydration experiment, a slurry of the crystalline anhydrous form of the compound represented by Formula (I) and deionized water was subjected to successive 4-hour heat-cool cycles between 40° C. and room temperature for 72 hours.

[4] = Hydration of crystalline anhydrous form in low water activity solvents (XRPD); conditions: Ambient
Protocol: The hydration of the crystalline anhydrous form was studied using aqueous solvent systems with low water activity of 0.1. Slurries of the crystalline anhydrous form in the respective solvent were agitated for 6 days at room temperature. Aliquots of isolated materials were analyzed after 24, 48, and 144 hours of agitation. Table 12 summarizes the experiment conditions and isolated crystalline forms, as determined by XRPD.

[5] = Static storage stability of crystalline dihydrate and anhydrous forms (XRPD, DSC, KF weekly for four weeks); conditions: all storage conditions (40° C./75% RH, 25° C./97% RH, 40° C./0% RH, 25° C./0% RH), after 4 weeks
Protocol: The stability of crystalline dihydrate and anhydrous forms of the compound represented by Formula (I) at varying relative humidity (RH) and temperature was investigated.
For example, the stability of crystalline dihydrate and anhydrous forms of the compound represented by Formula (I), as prepared according to Example 1 and Example 2, respectively, was studied under other conditions by placing aliquots of each form in static storage at conditions of 40° C./75% RH, 25° C./97% RH, 40° C./0% RH and 25° C./0% RH and analyzing the aliquots once weekly for four weeks using XRPD, DSC, and KF.

## Cc1nc(-c2cnc(NC(C)C)n(C)c2=O)ccc1Oc1ccnc(-c2cnn(C)c2)c1.O.O [Lot 2]
[1]; listed as 2
  D(10): 6 μm
  D(50): 18 μm
  D(90): 37 μm
[2]; listed as 2
  Particle Size d10: 2 microns
  Particle Size d50: 6 microns
  Particle Size d90: 11 microns

## Cc1nc(-c2cnc(NC(C)C)n(C)c2=O)ccc1Oc1ccnc(-c2cnn(C)c2)c1.O.O [Lot 3]
[1]; listed as 3
  D(10): 6 μm
  D(50): 17 μm
  D(90): 33 μm
[2]; listed as 3
  Particle Size d10: 3 microns
  Particle Size d50: 6 microns
  Particle Size d90: 12 microns

## Cc1nc(-c2cnc(NC(C)C)n(C)c2=O)ccc1Oc1ccnc(-c2cnn(C)c2)c1 [crystalline anhydrous form]
[3]
  isolated solid form by XRPD: crystalline dihydrate form
[4]; Acetone/water (99:1), 24 h
  Observed Forms: Anhydrous
[4]; Acetone/water (99:1), 144 h
  Observed Forms: Anhydrous
[4]; MEK/water (99:1), 24 h
  Observed Forms: Anhydrous
[4]; MEK/water (99:1), 144 h
  Observed Forms: Dihydrate
[5]
  stability of the solid form on storage: remained stable
